Experimental findings from patent US20210267989A1, “Novel Compounds for the Treatment, Alleviation or Prevention of Disorders Associated with Tau Aggregates” (AC Immune SA, priority 2018, published 2021) are described below.

For the experiment, the target named is T1, Tau K18 fragment aggregates (amino acids 244 to 372 of human Tau441) (Homo sapiens, UniProt P10636).
T1 construct: encompassing amino acids 244 to 372 of the longest isoform (2N4R) of human Tau441; host or cells: bacteria
Put plainly: Tau K18 disaggregation assay by ThT. In kind it is biochemical. The following applies: ThT fluorescence; 2 μM K18 aggregates, 30 minutes at RT. As for the experimental part: Tau K18 Disaggregation Assay by ThT
The Tau K18 fragment, encompassing amino acids 244 to 372 of the longest isoform (2N4R) of human Tau441, was expressed in bacteria and purified or bought from SignalChem. For the K18 disaggregation assay by ThT, 35 μM of recombinant K18 in PBS were aggregated for 24 hours at 37° C. in presence of 50 μM of heparin (Sigma-Aldrich) and 10 mM of DTT (Sigma-Aldrich) under shaking at 750 RPM. Compounds were dissolved in anhydrous dimethyl sulfoxide (DMSO, Sigma-Aldrich) to reach a concentration of 10 mM. K18 aggregates and serial dilutions of compounds were mixed together in PBS (volume 50 μL) to a final concentration of 2 μM of K18 aggregates and from 160 to 0.04 μM of compounds. The mixture was incubated for 30 minutes at room temperature (RT), then 40 μL of this mixture were transferred into a black 384-well plate assay (Perkin-Elmer) and mixed with 10 μL of 100 μM ThT in 250 mM glycine (both from Sigma-Aldrich) in PBS. Fluorescence (relative fluorescence units; RFU) was measured in monoplicate or duplicate on a Tecan reader (excitation: 440 nm; emission: 485 nm). Percentage of K18 disaggregation was then calculated and half maximal effective concentration (E050) was determined using GraphPad Prism version 5 (GraphPad Software) assuming a one-binding site fitting model.

Structures are written as SMILES.

T1 sequence (P10636 561-689): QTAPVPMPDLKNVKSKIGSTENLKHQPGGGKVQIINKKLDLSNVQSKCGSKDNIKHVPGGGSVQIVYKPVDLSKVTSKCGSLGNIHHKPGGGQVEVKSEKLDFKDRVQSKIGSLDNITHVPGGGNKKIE

The EC50 is the midpoint of the concentration-response curve. A low value points to greater potency. Turning to `COc1ccc2c(c1)c1c(n2C)CN(c2ccc3nc(N4CCOCC4)oc3c2)CC1` [Example 20], the EC50 was less than 10 µM.

With `Fc1ccc2[nH]c3c(c2c1)CCN(c1ccc2sc(N4CCOCC4)nc2c1)C3` [Example 22], the EC50 is less than 10 µM.

In turn, `Fc1ccc2[nH]c3c(c2c1)CCN(c1ccc2nc(N4CCOCC4)sc2c1)C3` [Example 23] registered an EC50 of less than 10 µM.

`Fc1ccc2[nH]c3c(c2c1)CCN(c1ccc2nc(N4CCOCC4)oc2c1)C3` [Example 24] registered a concentration giving a half-maximal response (EC50) of less than 10 µM.

For `Fc1ccc2[nH]c3c(c2c1)CCN(c1ccc2oc(N4CCOCC4)nc2c1)C3` [Example 25], the EC50 was less than 10 µM.

`CN(C)c1nc2ccc(N3CCc4c([nH]c5ccc(F)cc45)C3)cc2s1` [Example 26]: the half-maximal effective concentration (EC50) is less than 10 µM.

As for `CN(C)c1nc2ccc(N3CCc4c([nH]c5ccc(F)cc45)C3)cc2o1` [Example 27], the 50% effective concentration (EC50) is less than 10 µM.

In turn, `CN(C)c1nc2cc(N3CCc4c([nH]c5ccc(F)cc45)C3)ccc2o1` [Example 28] came in with an EC50 of less than 10 µM.

`CN(C)c1nc2ccc(N3CCc4c(n(C)c5ccc(F)cc45)C3)cc2s1` [Example 29]: the half-maximal effective concentration (EC50) was less than 10 µM.

Consider `COc1ccc2[nH]c3c(c2c1)CCN(c1ccc2sc(N4CCOCC4)nc2c1)C3` [Example 30], for which the EC50 is less than 10 µM.

For `COc1ccc2[nH]c3c(c2c1)CCN(c1ccc2nc(N4CCOCC4)sc2c1)C3` [Example 31], the EC50 was less than 10 µM.

`COc1ccc2[nH]c3c(c2c1)CCN(c1ccc2nc(N4CCOCC4)oc2c1)C3` [Example 32] had a half-maximal effective concentration (EC50) of less than 10 µM.

`COc1ccc2[nH]c3c(c2c1)CCN(c1ccc2oc(N4CCOCC4)nc2c1)C3` [Example 33]: the EC50 was in the range of 10 to 25 µM.

Compound `COc1ccc2[nH]c3c(c2c1)CCN(c1ccc2sc(N(C)C)nc2c1)C3` [Example 34] had an EC50 of less than 10 µM.

Turning to `COc1ccc2[nH]c3c(c2c1)CCN(c1ccc2nc(N(C)C)sc2c1)C3` [Example 35], the EC50 is less than 10 µM.

As for `COc1ccc2[nH]c3c(c2c1)CCN(c1ccc2nc(N(C)C)oc2c1)C3` [Example 36], the concentration giving a half-maximal response (EC50) is less than 10 µM.

`c1ccc2c3c([nH]c2c1)CN(c1ccc2sc(N4CCOCC4)nc2c1)CC3` [Example 37] yielded an EC50 of 10 to 25 µM.

`COc1ccc2[nH]c3c(c2c1)CCN(c1ccc2oc(N(C)C)nc2c1)C3` [Example 39] returned a 50% effective concentration (EC50) of less than 10 µM.

`Fc1ccc2[nH]c3c(c2c1)CCN(c1ccc(N2CCOCC2)nc1)C3` [Example 40] yielded a concentration for a half-maximal effect (EC50) of less than 10 µM.

As for `Fc1ccc2[nH]c3c(c2c1)CCN(c1ccc(N2CCOCC2)cn1)C3` [Example 41], the EC50 is less than 10 µM.

Turning to `CN(C)c1nc2cc(N3CCc4c([nH]c5ccc(F)cc45)C3)ccc2s1` [Example 42], the EC50 was less than 10 µM.

Take `Fc1ccc2[nH]c3c(c2c1)CCN(c1cnc(N2CCOCC2)c(F)c1)C3` [Example 48]: the EC50 was less than 10 µM.

Compound `Fc1ccc2[nH]c3c(c2c1)CCN(c1cc2sc(N4CCOCC4)nc2cn1)C3` [Example 49] gave an EC50 of less than 10 µM.

Compound `Fc1ccc2[nH]c3c(c2c1)CCN(c1cncc(N2CCOCC2)c1)C3` [Example 50] returned an EC50 of 10 to 25 µM.

As for `Fc1ccc2c3c([nH]c2c1)CN(c1cnc(N2CCOCC2)c(F)c1)CC3` [Example 51], the 50% effective concentration (EC50) lay in the range of 10 to 25 µM.

In turn, `Fc1ccc2c3c([nH]c2c1)CN(c1ccc(N2CCOCC2)c(F)c1)CC3` [Example 52] registered an EC50 of less than 10 µM.

`Fc1ccc2[nH]c3c(c2c1)CCN(c1cnc2nc(N4CCOCC4)sc2c1)C3` [Example 53] returned a half-maximal effective concentration (EC50) of less than 10 µM.

`Fc1ccc2[nH]c3c(c2c1)CCN(c1ccc2nc(N4CCOCC4)sc2n1)C3` [Example 54] displayed an EC50 of less than 10 µM.

In turn, `Fc1ccc2[nH]c3c(c2c1)CCN(c1ccc(N2CCOCC2)cc1)C3` [Example 55] yielded an EC50 of less than 10 µM.

Compound `Fc1ccc2[nH]c3c(c2c1)CCN(c1ccc(N2CCOCC2)cc1F)C3` [Example 56] showed an EC50 of less than 10 µM.

In the case of `Fc1ccc2c3c([nH]c2c1)CN(c1ccc(N2CCOCC2)cc1)CC3` [Example 57], the 50% effective concentration (EC50) is less than 10 µM.

`Fc1cc(N2CCc3c([nH]c4ccccc34)C2)ccc1N1CCOCC1` [Example 58] yielded an EC50 of less than 10 µM.

Turning to `c1ccc2c3c([nH]c2c1)CN(c1ccc(N2CCOCC2)cc1)CC3` [Example 59], the concentration for a half-maximal effect (EC50) was less than 10 µM.

Compound `CN1CCN(c2ccc(N3CCc4c([nH]c5cc(F)ccc45)C3)cc2)CC1` [Example 62] yielded an EC50 of 10 to 25 µM.

On to `Cn1c2c(c3ccccc31)CCN(c1nc3ccc(N4CCOCC4)cc3o1)C2` [Example 67], for which the EC50 was less than 10 µM.

In turn, `c1ccc2c3c([nH]c2c1)CN(c1ccc(N2CCOCC2)nn1)CC3` [Example 68] came in with a half-maximal effective concentration (EC50) of less than 10 µM.

The compound `c1ccc2c3c([nH]c2c1)CN(c1ccc(N2C4COCC2C4)nc1)CC3` [Example 70] returned a concentration for a half-maximal effect (EC50) of less than 10 µM.

`C[C@@H]1CN(c2ccc(N3CCc4c([nH]c5ccccc45)C3)cn2)C[C@H](C)O1` [Example 76]: the concentration giving a half-maximal response (EC50) is less than 10 µM.

With `c1ccc2c3c([nH]c2c1)CN(c1ccc(N2CCOC4(CCC4)C2)nc1)CC3` [Example 77], the EC50 is less than 10 µM.

As to `C[C@@H]1COCCN1c1ccc(N2CCc3c([nH]c4ccccc34)C2)cn1` [Example 78], the concentration giving a half-maximal response (EC50) was less than 10 µM.

Regarding `c1ccc2c3c([nH]c2c1)CN(c1ccc(N2C[C@@H]4C[C@H]2CO4)nc1)CC3` [Example 86], the concentration giving a half-maximal response (EC50) was less than 10 µM.

Compound `Fc1cccc2[nH]c3c(c12)CCN(c1ccc(N2CCOCC2)nc1)C3` [Example 87] registered an EC50 of less than 10 µM.

In turn, `Fc1cccc2[nH]c3c(c12)CCN(c1ccc(N2CCOCC2)cn1)C3` [Example 88] registered an EC50 of less than 10 µM.

`Fc1cccc2[nH]c3c(c12)CCN(c1ccc2oc(N4CCOCC4)nc2c1)C3` [Example 89] registered a concentration giving a half-maximal response (EC50) of less than 10 µM.

The compound `Cn1c2c(c3c(F)cccc31)CCN(c1ccc3oc(N4CCOCC4)nc3c1)C2` [Example 90] had a concentration for a half-maximal effect (EC50) of less than 10 µM.

In turn, `Cn1c2c(c3cccc(F)c31)CCN(c1ccc3oc(N4CCOCC4)nc3c1)C2` [Example 91] registered an EC50 of less than 10 µM.

In turn, `Fc1cccc2c3c([nH]c12)CN(c1ccc(N2CCOCC2)nc1)CC3` [Example 92] came in with a half-maximal effective concentration (EC50) of less than 10 µM.

With `Fc1cccc2c3c([nH]c12)CN(c1ccc2oc(N4CCOCC4)nc2c1)CC3` [Example 93], the concentration giving a half-maximal response (EC50) is less than 10 µM.

The compound `CN1CCN(c2cnc(N3CCc4c(n(C)c5ccccc45)C3)cn2)CC1` [Example 94] came in with an EC50 of 10 to 25 µM.

As to `CN1CCN(c2ccc(N3CCc4c(n(C)c5ccccc45)C3)cn2)CC1` [Example 95], the EC50 fell in the range of 25 to 50 µM.

Turning to `Cn1c2c(c3ccccc31)CCN(c1ccc(N3CCOCC3)nn1)C2` [Example 96], the EC50 was less than 10 µM.

In the case of `CN1CCN(c2nc3cc(N4CCc5c(n(C)c6ccccc56)C4)ccc3o2)CC1` [Example 97], the EC50 is 10 to 25 µM.

`CN1CCN(c2nc3cc(N4CCc5c([nH]c6ccccc56)C4)ccc3o2)CC1` [Example 98] came in with an EC50 of 25 to 50 µM.

For the compound `c1ccc2c3c([nH]c2c1)CN(c1ccc2oc(N4CCOCC4)nc2c1)CC3` [Example 99], the EC50 was less than 10 µM.

As to `Cn1c2c(c3ccccc31)CCN(c1ccc3oc(N4CCOCC4)nc3c1)C2` [Example 100], the concentration giving a half-maximal response (EC50) was less than 10 µM.

As for `Cn1c2c(c3ccccc31)CCN(c1nc3cc(N4CCOCC4)ccc3o1)C2` [Example 101], the EC50 is less than 10 µM.

In turn, `c1ccc2c3c([nH]c2c1)CN(c1nc2ccc(N4CCOCC4)cc2o1)CC3` [Example 102] came in with an EC50 of less than 10 µM.

As to `Fc1ccc2c3c([nH]c2c1)CN(c1ccc2oc(N4CCOCC4)nc2c1)CC3` [Example 103], the EC50 was less than 10 µM.

`Cn1c2c(c3ccccc31)CCN(c1ccc(C#N)nc1)C2` [Example 112] gave a 50% effective concentration (EC50) of less than 10 µM.

Regarding `N#Cc1ccc(N2CCc3c([nH]c4ccccc34)C2)cn1` [Example 113], the concentration giving a half-maximal response (EC50) was less than 10 µM.

`COC1CCN(c2ccc(N3CCc4c([nH]c5ccccc45)C3)nn2)CC1` [Example 117] had a concentration for a half-maximal effect (EC50) of less than 10 µM.

The compound `C[C@H]1CN(c2ccc(N3CCc4c([nH]c5ccccc45)C3)nn2)CCO1` [Example 118] came in with an EC50 of less than 10 µM.

On to `C[C@@H]1CN(c2ccc(N3CCc4c([nH]c5ccccc45)C3)nn2)CCO1` [Example 119], for which the EC50 is less than 10 µM.

Regarding `C[C@@H]1CN(c2ccc(N3CCc4c([nH]c5ccccc45)C3)nn2)C[C@H](C)O1` [Example 120], the EC50 was less than 10 µM.

`Fc1ccc2[nH]c3c(c2c1)CCN(c1ccc2ccc(N4CCOCC4)nc2c1)C3` [Example 121]: the 50% effective concentration (EC50) fell in the range of 10 to 25 µM.

`Fc1ccc2[nH]c3c(c2c1)CCN(c1ccc2nc(N4CCOCC4)ccc2c1)C3` [Example 122]: the EC50 was less than 10 µM.
